Source: ChEMBL document CHEMBL1131526, “Non-peptidic HIV protease inhibitors: C2-symmetry-based design of bis-sulfonamide dihydropyrones” (Bioorg Med Chem Lett, 1998)

Assays:
[1] = target: Human immunodeficiency virus type 1 protease (Human immunodeficiency virus 1, UniProt Q72874); test: Compound was evaluated for in vitro inhibition of human immunodeficiency virus type 1 (HIV-1) Protease
[2] = target: Human immunodeficiency virus type 1 protease (Human immunodeficiency virus 1) (UniProt Q72874); test: Compound was evaluated for in vitro inhibition of human immunodeficiency virus type 1 (HIV-1) Protease at 1 uM concentration
[3] = Compound was evaluated for in vitro inhibition of human immunodeficiency virus type 1 (HIV-1) Protease

Structure (SMILES)	Ki [1]	inhibition [2]	IC50 [3]
CCC(C1=C(O)OC(CC)(c2cccc(NS(=O)(=O)c3cn(C)cn3)c2)CC1=O)c1cccc(NS(=O)(=O)c2cn(C)cn2)c1 (stereo unspecified)	4.7 nM		
CCC(C1=C(O)OC(CC)(c2cccc(NS(=O)(=O)c3cccc4cccnc34)c2)CC1=O)c1cccc(NS(=O)(=O)c2cccc3cccnc23)c1 (stereo unspecified)		35%	
CCCC1(CCc2ccccc2)CC(=O)C(C(CC)c2cccc(NS(=O)(=O)c3cn(C)cn3)c2)=C(O)O1 (stereo unspecified)	1 nM		500 nM

Continued, in another order:

Ki [1]	inhibition [2]	Structure (SMILES)	IC50 [3]
0.1 nM		CCC(C1=C(O)OC(CC)(c2cccc(NS(=O)(=O)c3ccc(C#N)cn3)c2)CC1=O)c1cccc(NS(=O)(=O)c2ccc(C#N)cn2)c1 (stereo unspecified)	
	19%	CCC(C1=C(O)OC(CC)(c2cccc(NS(=O)(=O)c3ccc(C#N)cc3)c2)CC1=O)c1cccc(NS(=O)(=O)c2ccc(C#N)cc2)c1 (stereo unspecified)	
